From the supplement of paper PMC10307832

Tests used:
Assay in all cases: relative viability (nuclei count vs DMSO), 5 days (fraction); higher = more cells survive
BMX-IN-1 + Bortezomib = compound: C=CC(=O)Nc1cc(-n2c(=O)ccc3cnc4ccc(-c5ccc(NS(C)(=O)=O)cc5)cc4c32)ccc1C [BMX-IN-1] + CC(C)C[C@H](NC(=O)[C@H](Cc1ccccc1)NC(=O)c1cnccn1)B(O)O [Bortezomib] (partner 0.002 µM)
How it was run: (§1)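 Dosing by pin tool came one day after lung cancer cell lines were seeded in 1536-well plates, using either one drug or a fixed anchor-drug dose plus five library-drug doses (not always all listed) in √10 steps. After 5 days, nuclei were counted on 4× images. Relative viability is treated-well nuclei count divided by vehicle-well nuclei count, and values are medians of duplicate plates.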

BMX-IN-1 + Tozasertib = compound: C=CC(=O)Nc1cc(-n2c(=O)ccc3cnc4ccc(-c5ccc(NS(C)(=O)=O)cc5)cc4c32)ccc1C [BMX-IN-1] + Cc1cc(Nc2cc(N3CCN(C)CC3)nc(Sc3ccc(NC(=O)C4CC4)cc3)n2)n[nH]1 [Tozasertib] (partner 0.1 µM)
How it was run: as §1

PAC-1 + Navitoclax = compound: C=CCc1cccc(/C=N/NC(=O)CN2CCN(Cc3ccccc3)CC2)c1O [PAC-1] + CC1(C)CCC(c2ccc(Cl)cc2)=C(CN2CCN(c3ccc(C(=O)NS(=O)(=O)c4ccc(N[C@H](CCN5CCOCC5)CSc5ccccc5)c(S(=O)(=O)C(F)(F)F)c4)cc3)CC2)C1 [Navitoclax] (partner 0.5 µM)
How it was run: as §1

PAC-1 + Pemetrexed = compound: C=CCc1cccc(/C=N/NC(=O)CN2CCN(Cc3ccccc3)CC2)c1O [PAC-1] + Nc1nc2[nH]cc(CCc3ccc(C(=O)N[C@@H](CCC(=O)O)C(=O)O)cc3)c2c(=O)[nH]1 [Pemetrexed] (partner 0.2 µM)
How it was run: as §1

PAC-1 + Decitabine = compound: C=CCc1cccc(/C=N/NC(=O)CN2CCN(Cc3ccccc3)CC2)c1O [PAC-1] + Nc1ncn([C@H]2C[C@H](O)[C@@H](CO)O2)c(=O)n1 [Decitabine] (partner 2 µM)
How it was run: as §1

Cell Line | relative viability (BMX-IN-1 + Bortezomib; first compound 0.02 µM) | relative viability (BMX-IN-1 + Bortezomib; first compound 0.2 µM) | relative viability (BMX-IN-1 + Bortezomib; first compound 0.6325 µM) | relative viability (BMX-IN-1 + Bortezomib; first compound 2 µM) | relative viability (BMX-IN-1 + Tozasertib; first compound 0.02 µM) | relative viability (BMX-IN-1 + Tozasertib; first compound 0.2 µM) | relative viability (BMX-IN-1 + Tozasertib; first compound 0.6325 µM) | relative viability (BMX-IN-1 + Tozasertib; first compound 2 µM) | relative viability (PAC-1 + Navitoclax; first compound 0.02 µM) | relative viability (PAC-1 + Navitoclax; first compound 0.06325 µM) | relative viability (PAC-1 + Navitoclax; first compound 0.2 µM) | relative viability (PAC-1 + Navitoclax; first compound 2 µM) | relative viability (PAC-1 + Pemetrexed; first compound 0.02 µM) | relative viability (PAC-1 + Pemetrexed; first compound 0.06325 µM) | relative viability (PAC-1 + Pemetrexed; first compound 0.2 µM) | relative viability (PAC-1 + Pemetrexed; first compound 2 µM) | relative viability (PAC-1 + Decitabine; first compound 0.02 µM) | relative viability (PAC-1 + Decitabine; first compound 0.06325 µM) | relative viability (PAC-1 + Decitabine; first compound 0.2 µM) | relative viability (PAC-1 + Decitabine; first compound 2 µM)
COR-L 105 | 0.965 | 0.697 | 1.03 | 0.659 | 0.388 | 0.318 | 0.76 | 0.358 | 0.852 | 0.725 | 1.38 | 0.841 | 0.983 | 1.1 | 1.04 | 1.05 | 0.63 | 0.71 | 0.707 | 0.696
LOU-NH91 | – | 0.512 | 0.459 | 0.49 | 0.829 | – | 0.715 | 0.656 | 0.651 | 0.718 | 0.672 | 0.673 | 0.368 | 0.365 | 0.379 | 0.39 | 0.813 | 0.813 | 0.811 | 0.796
PC-3 [JPC-3] | 0.913 | 0.955 | 0.944 | 0.824 | 1.02 | 1.02 | 1.08 | 0.951 | 0.894 | 0.817 | 0.708 | 0.844 | 1.09 | 1.32 | 1.25 | 1.09 | 0.938 | 0.861 | 0.698 | 0.77
NCI-H2228 | 1.66 | 1.03 | 1.47 | 1.12 | 0.243 | 0.245 | 0.243 | 0.224 | 0.98 | 1.12 | 0.893 | 0.785 | 0.344 | 0.361 | 0.325 | 0.346 | – | – | – | –
LCLC-103H | 1.11 | 0.972 | 1.25 | 0.932 | 0.605 | 0.494 | 0.559 | 0.485 | – | – | – | – | 0.468 | 0.419 | 0.436 | 0.451 | 0.725 | 0.784 | 0.71 | 0.736
NCI-H661 | 0.86 | 0.785 | 0.841 | 0.685 | 0.378 | 0.358 | 0.352 | 0.348 | – | – | – | – | 0.906 | 0.877 | 0.88 | 0.882 | 0.526 | 0.53 | 0.439 | 0.506
NCI-H1703 | 0.257 | 0.329 | 0.337 | 0.242 | – | – | – | – | 1.4 | 0.998 | 0.958 | 0.959 | – | – | – | – | – | – | – | –
NCI-H2342 | – | – | – | – | 0.454 | 0.526 | 0.494 | 0.422 | – | – | – | – | 0.851 | 0.754 | 0.727 | 0.781 | 0.791 | 0.705 | 0.704 | 0.733
ABC-1 | 0.34 | 0.302 | 0.244 | 0.306 | 0.199 | 0.162 | 0.145 | 0.172 | – | – | – | – | – | – | – | – | 0.809 | 1.06 | 1.05 | 1.16
NCI-H1793 | – | – | – | – | 0.311 | 0.285 | 0.311 | 0.303 | 0.453 | 0.46 | 0.535 | 0.461 | 0.811 | 0.952 | 0.835 | 0.837 | 0.48 | 0.589 | 0.396 | 0.542
NCI-H358 | – | – | – | – | 0.112 | 0.108 | 0.104 | 0.11 | – | – | – | – | 0.165 | 0.161 | 0.187 | 0.183 | 0.229 | 0.219 | 0.209 | 0.16
NCI-H1792 | 1.25 | 1.4 | 0.912 | 0.956 | – | – | – | – | 0.613 | 0.563 | 0.621 | 0.681 | 0.712 | 0.894 | 0.829 | 0.957 | 0.539 | 0.521 | 0.482 | 0.483
SW 900 | – | – | – | – | 0.425 | 0.682 | 0.606 | 0.679 | – | – | – | – | – | 0.456 | 0.456 | 0.531 | – | 0.393 | 0.478 | 0.378
NCI-H1299 | 0.968 | 1.08 | 1.13 | 0.97 | – | – | – | – | 1.04 | 1.03 | 1.06 | 1.04 | – | – | – | – | – | – | – | –
EBC-1 | 0.574 | 0.581 | 0.626 | 0.598 | – | – | – | – | 0.382 | 0.336 | 0.443 | 0.33 | – | – | – | – | – | – | – | –
NCI-H1944 | – | – | – | – | 0.279 | 0.254 | 0.236 | 0.244 | 1.03 | 1.04 | 0.954 | 1.04 | 0.595 | 0.65 | 0.623 | 0.627 | 0.435 | 0.459 | 0.466 | 0.456
IA-LM | 0.884 | 0.928 | 0.984 | 0.884 | – | – | – | – | 0.78 | 0.92 | 0.632 | 0.657 | – | – | – | – | – | – | – | –
NCI-H1395 | – | – | – | – | 0.832 | 0.793 | 0.701 | 0.715 | 1.21 | 1.16 | 1.32 | 1.32 | 0.868 | 0.799 | 0.781 | 0.923 | 0.741 | 0.685 | 0.632 | 0.712
NCI-H650 | 1.06 | 0.762 | 0.783 | 0.749 | 0.753 | 0.838 | 0.739 | 0.764 | – | – | – | – | 0.893 | 0.931 | 0.968 | 1.03 | 0.307 | 0.331 | 0.298 | 0.45
NCI-H1563 | 0.896 | 0.925 | 0.891 | 0.79 | – | – | – | – | – | – | – | – | 0.787 | 0.746 | 0.776 | 0.949 | – | – | – | –
A549 | – | – | – | – | – | – | – | – | 1.25 | 1.18 | 1.14 | 1.23 | – | – | – | – | 0.342 | 0.267 | 0.138 | 0.253
NCI-H2170 | – | – | – | – | 0.771 | 0.779 | 0.625 | 0.777 | 0.637 | 0.622 | 0.569 | 0.461 | 0.259 | 0.252 | 0.257 | 0.278 | 0.477 | 0.493 | 0.42 | 0.453
